Structures are written as SMILES.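 Protocol summary: plate cells (96-well), add compound at 5 concentrations, incubate 48 h, interpolate endpoints linearly. GI50 = concentration required for 50% inhibition of growth. TGI marks complete inhibition of growth.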

Some test systems named below: 786-0 renal; BT-549 breast; HS 578T breast; MCF7 breast; MDA-MB-231 breast; MDA-MB-435; MOLT-4 leukemia; NCI-H226 lung; OVCAR-3 ovarian; OVCAR-4 ovarian; RPMI-8226 leukemia; RXF 393 renal; SF-268 CNS; SN12C renal; SNB-75 CNS; UACC-257 melanoma; UACC-62 melanoma.
What all share (test): NCI anticancer screen, dose series, 48 h

With `COc1ccc(C2CC(c3ccc4ccccc4c3O)=NN2C(C)=O)cc1OC` (centres undefined), the TGI with 786-0 renal, with BT-549 breast, in the assay on HS 578T breast, in the assay with MCF7 breast, with MDA-MB-231 breast and in the assay with MDA-MB-435 was more than 100 µM in each case. Further, the TGI with MOLT-4 leukemia, in the assay with NCI-H226 lung, with OVCAR-3 ovarian, in the assay on OVCAR-4 ovarian, in the assay with RPMI-8226 leukemia and in the assay on RXF 393 renal was more than 100 µM in each case. The TGI with SF-268 CNS, in the assay on SN12C renal, in the assay on SNB-75 CNS, in the assay on UACC-257 melanoma and with UACC-62 melanoma was more than 100 µM in each case.
Take `CN(C)CCCNc1ccnc2cc([N+](=O)[O-])ccc12`: the TGI with 786-0 renal is 28.8 µM; with BT-549 breast, 33.4 µM; with HS 578T breast, 40.4 µM; with MCF7 breast, 16.7 µM; with MDA-MB-231 breast it was 28.6 µM; with MDA-MB-435, 31.3 µM. For the same compound, the TGI in the assay on MOLT-4 leukemia was more than 100 µM; with NCI-H226 lung it was 35 µM; with OVCAR-3 ovarian it was 29.9 µM; with OVCAR-4 ovarian, 12.8 µM; in the assay with RPMI-8226 leukemia, more than 100 µM; in the assay on RXF 393 renal, 26.3 µM. Further, the TGI with SF-268 CNS was 53.9 µM; in the assay with SN12C renal it was 39.9 µM; in the assay with SNB-75 CNS, 48.9 µM; in the assay on UACC-257 melanoma, 27.7 µM; in the assay with UACC-62 melanoma, 33.6 µM.
Take `Cn1c(=O)c2c(nc(N)n2C2OC(CO)C(O)C2O)n(C)c1=O` (centres undefined): the TGI in the assay on 786-0 renal, in the assay on BT-549 breast, in the assay on HS 578T breast, with MCF7 breast, with MDA-MB-231 breast and in the assay on MDA-MB-435 was more than 100 µM in each case. In addition, the TGI in the assay with MOLT-4 leukemia, in the assay on NCI-H226 lung, in the assay on OVCAR-3 ovarian, with OVCAR-4 ovarian, in the assay on RPMI-8226 leukemia and in the assay with RXF 393 renal was more than 100 µM in each case. In addition, the TGI with SF-268 CNS, in the assay with SN12C renal, in the assay with SNB-75 CNS, in the assay on UACC-257 melanoma and in the assay with UACC-62 melanoma was more than 100 µM in each case.
Turning to `OCc1ccc2c(c1)CC1(C2)Cc2cc3c(cc2C1)CCC3`, the TGI was more than 100 µM with 786-0 renal; more than 100 µM in the assay on BT-549 breast; 29.3 µM in the assay with HS 578T breast; more than 100 µM with MCF7 breast; more than 100 µM with MDA-MB-231 breast; 0.615 µM in the assay with MDA-MB-435. Further, the TGI in the assay on MOLT-4 leukemia was more than 100 µM; in the assay on NCI-H226 lung, more than 100 µM; with OVCAR-3 ovarian, more than 100 µM; with OVCAR-4 ovarian, more than 100 µM; in the assay on RPMI-8226 leukemia, more than 100 µM; in the assay on RXF 393 renal, 28.5 µM. Moreover, the TGI was more than 100 µM in the assay on SF-268 CNS; more than 50.8 µM in the assay with SN12C renal; 8.18 µM in the assay with SNB-75 CNS; more than 100 µM in the assay with UACC-257 melanoma; more than 72.2 µM in the assay on UACC-62 melanoma.
For `CCO/C=N/C1=C(C#N)C(c2ccc(Cl)cc2)c2c(-c3ccccc3)nn(-c3ccccc3)c2O1` (centres undefined), the TGI with 786-0 renal was 32.2 µM; in the assay with BT-549 breast, 31.5 µM; in the assay with HS 578T breast it was more than 28.1 µM; with MCF7 breast, 25 µM; in the assay on MDA-MB-231 breast it was more than 67 µM; with MDA-MB-435, 35.8 µM. For the same compound, the TGI in the assay with MOLT-4 leukemia is more than 100 µM; in the assay on NCI-H226 lung it was 46.9 µM; in the assay with OVCAR-3 ovarian, more than 45.2 µM; with OVCAR-4 ovarian, more than 64.8 µM; with RPMI-8226 leukemia it was more than 100 µM; in the assay on RXF 393 renal, 28.6 µM. The TGI is 29.9 µM in the assay on SF-268 CNS; more than 100 µM with SN12C renal; 29.1 µM in the assay on SNB-75 CNS; 35.9 µM with UACC-257 melanoma; 33.5 µM with UACC-62 melanoma.
With `CC#Cc1cc2c(cc1O)CC[C@@H]1[C@@H]2CC[C@]2(C)[C@@H](O)CC[C@@H]12`, the TGI worked out at 35.1 µM in the assay on 786-0 renal; 24.5 µM in the assay with BT-549 breast; 29.5 µM in the assay with HS 578T breast; 64.3 µM in the assay with MCF7 breast; 46.2 µM with MDA-MB-231 breast; 0.814 µM in the assay with MDA-MB-435. For the same compound, the TGI was 17.2 µM with MOLT-4 leukemia; 17.8 µM in the assay on NCI-H226 lung; 3.26 µM in the assay with OVCAR-3 ovarian; 62 µM in the assay on OVCAR-4 ovarian; more than 66.1 µM in the assay with RPMI-8226 leukemia; 13.8 µM in the assay with RXF 393 renal. In addition, the TGI with SF-268 CNS is more than 100 µM; in the assay with SN12C renal, 22.8 µM; in the assay on SNB-75 CNS, 27.6 µM; in the assay with UACC-257 melanoma it was 28.1 µM; in the assay on UACC-62 melanoma, 16.7 µM. Besides, the values for the GI50 with OVCAR-3 ovarian and with UACC-62 melanoma were 0.337 µM and 0.503 µM, respectively.
With `Nc1nc(Cl)cc(NCC2(CO)CCC(O)C2)n1` (centres undefined), the TGI in the assay on 786-0 renal, with BT-549 breast, with HS 578T breast, in the assay with MCF7 breast, with MDA-MB-231 breast and in the assay on MDA-MB-435 was more than 100 µM throughout. Besides, the TGI in the assay on MOLT-4 leukemia, in the assay on NCI-H226 lung, with OVCAR-3 ovarian, with OVCAR-4 ovarian, with RPMI-8226 leukemia and with RXF 393 renal was more than 100 µM each time. Besides, the TGI in the assay with SF-268 CNS, with SN12C renal, with SNB-75 CNS, in the assay on UACC-257 melanoma and in the assay with UACC-62 melanoma was more than 100 µM each time.
On to `CC1=C(C#N)C2C(=C(N)Oc3ccccc32)C(N)=N1` (centres undefined), for which the TGI was 60.9 µM with 786-0 renal; 93.5 µM in the assay with BT-549 breast; 72.1 µM with HS 578T breast; 62.9 µM in the assay on MCF7 breast; 66.6 µM with MDA-MB-231 breast; more than 100 µM in the assay with MDA-MB-435. The TGI in the assay on MOLT-4 leukemia is more than 100 µM; with NCI-H226 lung, 66.2 µM; in the assay with OVCAR-3 ovarian it was more than 100 µM; in the assay with OVCAR-4 ovarian, 77.7 µM; in the assay on RPMI-8226 leukemia, 77.3 µM; in the assay with RXF 393 renal, more than 100 µM. For the same compound, the TGI in the assay on SF-268 CNS was 67.4 µM; in the assay on SN12C renal it was 72.8 µM; with SNB-75 CNS, 64.1 µM; in the assay with UACC-257 melanoma, 69.6 µM; in the assay on UACC-62 melanoma it was 48.4 µM.
With `C[C@]12CC[C@H](O)C=C1CC[C@@H]1[C@@H]2CC[C@]2(C)C(=N/O)/C(=C/c3ccncc3)C[C@@H]12`, the TGI in the assay on 786-0 renal was 25.5 µM; in the assay on BT-549 breast it was 81.5 µM; in the assay on HS 578T breast, more than 100 µM; in the assay with MCF7 breast, 16.7 µM; in the assay with MDA-MB-231 breast, 23.9 µM; in the assay on MDA-MB-435, 42.8 µM. Besides, the TGI with MOLT-4 leukemia was more than 100 µM; in the assay with NCI-H226 lung, 25.3 µM; with OVCAR-3 ovarian it was 19.1 µM; in the assay with OVCAR-4 ovarian it was 76 µM; in the assay with RPMI-8226 leukemia it was 19.9 µM; in the assay on RXF 393 renal, 26.3 µM. In addition, the TGI in the assay on SF-268 CNS is 49.4 µM; in the assay on SN12C renal it was 32.8 µM; in the assay with SNB-75 CNS, 43.8 µM; in the assay with UACC-257 melanoma, 32.8 µM; in the assay with UACC-62 melanoma, 19.3 µM.
For `O=C(NCCNCCNCCNC(=O)c1cc(-c2ccccc2)nc2ccccc12)c1cc(-c2ccccc2)nc2ccccc12`, the TGI with 786-0 renal came to 3.08 µM; with BT-549 breast, 21.9 µM; with HS 578T breast, 4.96 µM; in the assay on MCF7 breast, 3.79 µM; in the assay on MDA-MB-231 breast, 7.57 µM; in the assay on MDA-MB-435 it was 3.23 µM. The TGI with MOLT-4 leukemia came to 4.22 µM; with NCI-H226 lung, 7.38 µM; in the assay on OVCAR-3 ovarian, 8.11 µM; in the assay on OVCAR-4 ovarian it was 13.8 µM; in the assay on RPMI-8226 leukemia it was 6.51 µM; with RXF 393 renal, 4.34 µM. Moreover, the TGI in the assay with SF-268 CNS is 10.1 µM; in the assay with SN12C renal, 11.2 µM; in the assay with SNB-75 CNS, 3.44 µM; in the assay with UACC-257 melanoma, 3.17 µM; in the assay with UACC-62 melanoma, 3.97 µM.
In the case of `Cc1cc(S(=O)(=O)NC2=NC(c3ccccc3)c3ccccc3N2)c(S)cc1Cl` (centres undefined), the TGI with 786-0 renal, in the assay with BT-549 breast, in the assay with HS 578T breast, in the assay on MCF7 breast, in the assay with MDA-MB-231 breast and in the assay on MDA-MB-435 was more than 100 µM each time. Further, the TGI in the assay on MOLT-4 leukemia, in the assay with NCI-H226 lung, with OVCAR-3 ovarian, with OVCAR-4 ovarian, in the assay on RPMI-8226 leukemia and in the assay on RXF 393 renal was more than 100 µM each time. Besides, the TGI in the assay on SF-268 CNS, in the assay on SN12C renal, with SNB-75 CNS, in the assay on UACC-257 melanoma and in the assay with UACC-62 melanoma was more than 100 µM each time.

Values taken from PubChem BioAssay (NCI).
